Assay results from paper PMC7180839, “Biophysical Screens Identify Fragments That Bind to the Viral DNA-Binding Proteins EBNA1 and LANA” (Molecules, 2020).

What was measured:
[1] = target: T1, EBNA1-CAC (EBNA1 DNA-binding domain) (Epstein-Barr virus, UniProt P03211, C531S/C560S/C591S/C598S); assay: SPR affinity assay, EBNA1-CAC immobilized on CM5 chip via thiol coupling; parameters: species or system Epstein–Barr virus (EBV); conditions: Biacore S200, 1:1 interaction model, global Rmax, fragment 79-900 μM, 5% DMSO, pH 7.1
T1 construct: His-tag-SUMO (N, cleaved yes); made in house; host or cells: Escherichia coli
T1 sequence (P03211 459-607 C531S/C560S/C591S/C598S): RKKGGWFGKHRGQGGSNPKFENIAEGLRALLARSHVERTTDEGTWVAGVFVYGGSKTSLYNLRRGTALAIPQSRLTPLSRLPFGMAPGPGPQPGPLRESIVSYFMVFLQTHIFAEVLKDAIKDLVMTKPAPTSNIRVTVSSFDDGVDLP
Protocol: SPR experiments were performed on a Biacore™ S200 instrument (GE Healthcare). […] As an alternative, we developed a thiol coupling method to immobilize EBNA1 and LANA to the Biacore sensor chip. We synthesized a construct that expressed a version of EBNA1 and LANA DNA-binding domains with the internal cysteines mutated to serine and Cys-Ala-Cys added to the C terminus (EBNA1-CAC and LANA-CAC).
The 1000 fragments from the library were screened at a concentration of 1 mM (5% DMSO). Hits were selected on the basis of the following criteria: a relative binding response normalized with respect to the positive control, no indication that multiple fragments were bound, R > Rmax (R = Response units, Rmax = the maximum binding capacity based on control fragment) and sensorgram shapes consistent with fragment binding (rapid on and off rates). Based on these criteria, 94 EBNA1 fragments and 104 LANA fragments were selected for further validation to measure binding affinities, which were determined to range from 0.2 to >10 mM. […]
To validate fragments from the primary screen, an affinity assay was performed. […] Binding sensorgrams were processed by first subtracting the binding response recorded from the control surface (reference flow cell), followed by solvent correction. […] Affinities were assessed using a global Rmax determined by reference compounds. […]

[2] = target: T2, EBNA1 (468–607) (Epstein-Barr virus, UniProt P03211); assay: X-ray crystallography, fragment soaked into preformed EBNA1 crystals; format: binding, Epstein–Barr virus (EBV); conditions: crystal soak 4 h; 1.3 Å structure, PDB 6VH6; pocket that contacts the DNA phosphate backbone
T2 construct: using purified EBNA1 (468–607) mixed in a 2 μl:2 μl ratio with reservoir solution; made in house
T2 sequence (P03211 468-607): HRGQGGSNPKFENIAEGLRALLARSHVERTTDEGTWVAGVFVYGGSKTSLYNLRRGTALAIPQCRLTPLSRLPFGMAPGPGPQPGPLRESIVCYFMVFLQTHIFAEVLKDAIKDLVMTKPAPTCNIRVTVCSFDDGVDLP
Source text: We determined the high-resolution crystal structure of one fragment bound to EBNA1 (Figure 4). We soaked the fragment AC37287 into preformed crystals of EBNA1 (468–607). The crystal of AC37287 diffracted to 1.3 Ångstroms and was solved by isomorphous replacement. The electron density around AC38287 is unambiguous at this resolution (Figure 4A). The aliphatic portion of AC37287 binds into a deep hydrophobic pocket made up of the hydrophobic residues I481, L520, L582, V483 and I593 (Figure 4B). The lactone is sandwiched between residues N519 and T590 within the range of a hydrogen bond of N519 (Figure 4C). This molecule binds in a region that is important for DNA binding (Figure 4D).
Crystals were grown using the vapor diffusion method in 24–48 h using purified EBNA1 (468–607) mixed in a 2 μl:2 μl ratio with reservoir solution (50 mM MES, pH 6.5, 0–150 mM NaCl, and 10 mM DTT). Crystals were transferred to a solution containing 25–30% glycerol and 0.2 μl of 50 mM of AC37287, incubated for 4 h and flash frozen for data collection. Data were collected on the 21BM beamline at the Argonne Light Source (ALS) at Argonne National Laboratory. Data were indexed, reduced, and scaled using HKL3000. The structures were solved by isomorphous replacement. Models were refined in PHENIX, version 1.17, using simulated annealing, minimization, and individual B-factor refinement. […]

SMILES: OCCCCn1cnc2cc(Cl)c(Cl)cc21 [SPB07625]
- Kd [1]: 2100 µM

SMILES: Cc1ccc2oc(=O)cc(O)c2c1 [AC37287]
- fragment binding observed in crystal structure [2]: binds in this pocket of EBNA1
